Source: US12139499B2, “Heteroaryl compounds for treating Huntington's disease” (PTC THERAPEUTICS, INC., priority 2018, dated 2024)

System: Endogenous Huntingtin Protein
Assay: Endogenous Huntingtin Protein Assay (ELISA-based MSD electrochemiluminescence)
Assay type: cell-based
Conditions: Table 1
Method: Compounds of Formula (I) or Formula (II) were tested using the Meso Scale Discovery (MSD) Assay provided in International Application No. PCT/US2016/066042, filed on Dec. 11, 2016 and claiming priority to U.S. Provisional Application 62/265,652 filed on Dec. 10, 2015, the entire contents of which are incorporated herein by reference.
The Endogenous Huntingtin Protein assay used in Example 1 was developed using the ELISA-based MSD electrochemiluminescence assay platform.
Endogenous Huntingtin Protein Assay
Meso Scale Discovery (MSD) 96-well or 384-well plates were coated overnight at 4° C. with MW1 (expanded polyglutamine) or MAB2166 monoclonal antibody (for capture) at a concentration of 1 μg/mL in PBS (30 μL per well). Plates were then washed three times with 300 μL wash buffer (0.05% Tween-20 in PBS) and blocked (100 μL blocking buffer; 5% BSA in PBS) for 4-5 hours at room temperature with rotational shaking and then washed three times with wash buffer.
Samples (25 μL) were transferred to the antibody-coated MSD plate and incubated overnight at 4° C. After removal of the lysates, the plate was washed three times with wash buffer, and 25 μL of #5656S (Cell signaling; rabbit monoclonal) secondary antibody (diluted to 0.25 μg/mL in 0.05% Tween-20 in blocking buffer) was added to each well and incubated with shaking for 1 Hour at room temperature. Following incubation with the secondary antibody, the wells were rinsed with wash buffer after which 25 μL of goat anti-rabbit SULFO TAG secondary detection antibody (required aspect of the MSD system) (diluted to 0.25 μg/mL in 0.05% Tween-20 in blocking buffer) was added to each well and incubated with shaking for 1 hour at room temperature. After rinsing three times with wash buffer, 150 μL of read buffer T with surfactant (MSD) were added to each empty well, and the plate was imaged on a SI 6000 imager (MSD) according to manufacturers' instructions provided for 96- or 384-well plates.

Row | SMILES | IC50
1 | Cn1cc2cc(-c3ccc4nc(N5CCC(N)CC5)sc4c3)ccc2n1 [Compound 29, 1-[6-(2-methyl-2H-indazol-5-yl)-1,3-benzothiazol-2-yl]piperidin-4-amine] | 1000 to 3000 nM
2 | Cc1cc(-c2cc3sc(N(C)C4CCNCC4)nc3cn2)cc2cn(C)nc12 [Compound 30, 6-(2,7-dimethyl-2H-indazol-5-yl)-N-methyl-N-(piperidin-4-yl)[1,3]thiazolo[4,5-c]pyridin-2-amine] | 100 to 500 nM
3 | Cc1cc(-c2cc3sc(N(C)C4CC(C)(C)NC(C)(C)C4)nc3cn2)cc2cn(C)nc12 [Compound 31, 6-(2,7-dimethyl-2H-indazol-5-yl)-N-methyl-N-(2,2,6,6-tetramethylpiperidin-4-yl)[1,3]thiazolo[4,5-c]pyridin-2-amine] | ≤ 100 nM
4 | CN(c1nc2cnc(-c3ccc4nn(C)cc4c3)cc2s1)C1CC(C)(C)NC(C)(C)C1 [Compound 32, N-methyl-6-(2-methyl-2H-indazol-5-yl)-N-(2,2,6,6-tetramethylpiperidin-4-yl)[1,3]thiazolo[4,5-c]pyridin-2-amine] | ≤ 100 nM
5 | Cc1cn2cc(-c3ccc4nc(N(C)C5CC(C)(C)NC(C)(C)C5)sc4c3)cc(C)c2n1 [Compound 33, 6-(2,8-dimethylimidazo[1,2-a]pyridin-6-yl)-N-methyl-N-(2,2,6,6-tetramethylpiperidin-4-yl)-1,3-benzothiazol-2-amine] | ≤ 100 nM
6 | CN(c1nc2ccc(-c3ccc4[nH]ncc4c3)cc2s1)C1CC(C)(C)NC(C)(C)C1 [Compound 34, 6-(1H-indazol-5-yl)-N-methyl-N-(2,2,6,6-tetramethylpiperidin-4-yl)-1,3-benzothiazol-2-amine] | 100 to 500 nM
7 | Cn1cc2cc(-c3ccc4nc(NC5CCNCC5)sc4c3)ccc2n1 [Compound 35, 6-(2-methyl-2H-indazol-5-yl)-N-(piperidin-4-yl)-1,3-benzothiazol-2-amine] | 100 to 500 nM
8 | Cc1cc(-c2ccc3nc(N(C)C4CCNCC4)sc3n2)cc2cn(C)nc12 [Compound 36, 5-(2,7-dimethyl-2H-indazol-5-yl)-N-methyl-N-(piperidin-4-yl)[1,3]thiazolo[5,4-b]pyridin-2-amine] | 100 to 500 nM
9 | Cc1cn2nc(-c3cc(F)c4nc(N(C)C5CC(C)(C)NC(C)(C)C5)sc4c3)ccc2n1 [Compound 37, 4-fluoro-N-methyl-6-(2-methylimidazo[1,2-b]pyridazin-6-yl)-N-(2,2,6,6-tetramethylpiperidin-4-yl)-1,3-benzothiazol-2-amine] | ≤ 100 nM
10 | CN(c1nc2ccc(-c3ccc4nn(C)cc4c3)cc2s1)C1CCNC1 (stereo not drawn) [Compound 38, N-methyl-6-(2-methyl-2H-indazol-5-yl)-N-(pyrrolidin-3-yl)-1,3-benzothiazol-2-amine] | 1000 to 3000 nM
11 | Cc1cn2cc(-c3cc(F)c4nc(N(C)C5CC(C)(C)NC(C)(C)C5)sc4c3)cc(C)c2n1 [Compound 39, 6-(2,8-dimethylimidazo[1,2-a]pyridin-6-yl)-4-fluoro-N-methyl-N-(2,2,6,6-tetramethylpiperidin-4-yl)-1,3-benzothiazol-2-amine] | ≤ 100 nM
12 | Cc1cn2nc(-c3ccc4nc(N(C)C5CC(C)(C)NC(C)(C)C5)sc4c3)ccc2n1 [Compound 40, N-methyl-6-(2-methylimidazo[1,2-b]pyridazin-6-yl)-N-(2,2,6,6-tetramethylpiperidin-4-yl)-1,3-benzothiazol-2-amine] | ≤ 100 nM
13 | Cn1cc2cc(-c3ccc4nc(C5(F)CCNCC5)sc4c3)ccc2n1 [Compound 41, 2-(4-fluoropiperidin-4-yl)-6-(2-methyl-2H-indazol-5-yl)-1,3-benzothiazole] | 1000 to 3000 nM
14 | Cn1cc2cc(-c3ccc4nc(C5CCCNCC5)sc4c3)ccc2n1 (stereo not drawn) [Compound 42, 2-(azepan-4-yl)-6-(2-methyl-2H-indazol-5-yl)-1,3-benzothiazole] | 100 to 500 nM
15 | Cn1cc2cc(-c3nc4ncc(C5CCNCC5)cc4s3)ccc2n1 [Compound 43, 2-(2-methyl-2H-indazol-5-yl)-6-(piperidin-4-yl)[1,3]thiazolo[4,5-b]pyridine] | 100 to 500 nM
16 | Cc1cn2nc(-c3cc(F)c4nc(C5=CCNCC5)sc4c3)ccc2n1 [Compound 44, 6-[4-fluoro-2-(1,2,3,6-tetrahydropyridin-4-yl)-1,3-benzothiazol-6-yl]-2-methylimidazo[1,2-b]pyridazine] | ≤ 100 nM
17 | Cc1cn2nc(-c3cc(F)c4nc(C5CCNCC5)sc4c3)ccc2n1 [Compound 45, 6-[4-fluoro-2-(piperidin-4-yl)-1,3-benzothiazol-6-yl]-2-methylimidazo[1,2-b]pyridazine] | ≤ 100 nM

Row | SMILES | IC50
18 | Cc1cn2nc(-c3cc(F)c4nc(C5=CCNCC5)sc4c3)cc(C)c2n1 [Compound 46, 6-[4-fluoro-2-(1,2,3,6-tetrahydropyridin-4-yl)-1,3-benzothiazol-6-yl]-2,8-dimethylimidazo[1,2-b]pyridazine] | ≤ 100 nM
19 | Cc1cn2nc(-c3cc(F)c4nc(C5CCNCC5)sc4c3)cc(C)c2n1 [Compound 47, 6-[4-fluoro-2-(piperidin-4-yl)-1,3-benzothiazol-6-yl]-2,8-dimethylimidazo[1,2-b]pyridazine] | ≤ 100 nM
20 | Cc1nc2ccc(-c3ccc4nc(N(C)C5CC(C)(C)NC(C)(C)C5)sc4c3)nn2n1 [Compound 48, N-methyl-6-(2-methyl[1,2,4]triazolo[1,5-b]pyridazin-6-yl)-N-(2,2,6,6-tetramethylpiperidin-4-yl)-1,3-benzothiazol-2-amine] | 100 to 500 nM
21 | Cc1cc(-c2nc3ccc(C4=CCNCC4)cc3s2)cc2cn(C)nc12 [Compound 49, 2-(2,7-dimethyl-2H-indazol-5-yl)-6-(1,2,3,6-tetrahydropyridin-4-yl)-1,3-benzothiazole] | 100 to 500 nM
22 | Cc1cc(-c2nc3ccc(C4CCNCC4)cc3s2)cc2cn(C)nc12 [Compound 50, 2-(2,7-dimethyl-2H-indazol-5-yl)-6-(piperidin-4-yl)-1,3-benzothiazole] | 100 to 500 nM
23 | CN(c1nc2ccc(-c3cc(C(F)(F)F)c4nn(C)cc4c3)cc2s1)C1CC(C)(C)NC(C)(C)C1 [Compound 51, N-methyl-6-[2-methyl-7-(trifluoromethyl)-2H-indazol-5-yl]-N-(2,2,6,6-tetramethylpiperidin-4-yl)-1,3-benzothiazol-2-amine] | 100 to 500 nM
24 | Cn1cc2cc(-c3ccc4nc(C5CC(C)(C)NC(C)(C)C5)sc4c3)ccc2n1 [Compound 52, 6-(2-methyl-2H-indazol-5-yl)-2-(2,2,6,6-tetramethylpiperidin-4-yl)-1,3-benzothiazole] | 1000 to 3000 nM
25 | Cc1cn2cc(-c3cc(F)c4nc(C5=CCNCC5)sc4c3)nc(C)c2n1 [Compound 53, 6-[4-fluoro-2-(1,2,3,6-tetrahydropyridin-4-yl)-1,3-benzothiazol-6-yl]-2,8-dimethylimidazo[1,2-a]pyrazine] | 100 to 500 nM
26 | CCc1cc(-c2ccc3nc(N(C)C4CC(C)(C)NC(C)(C)C4)sc3c2)cc2cn(C)nc12 [Compound 54, 6-(7-ethyl-2-methyl-2H-indazol-5-yl)-N-methyl-N-(2,2,6,6-tetramethylpiperidin-4-yl)-1,3-benzothiazol-2-amine] | 100 to 500 nM
27 | Cc1cn2cc(-c3ccc4nc(N(C)C5CC(C)(C)NC(C)(C)C5)sc4c3)cc2c(C)n1 [Compound 55, 6-(1,3-dimethylpyrrolo[1,2-a]pyrazin-7-yl)-N-methyl-N-(2,2,6,6-tetramethylpiperidin-4-yl)-1,3-benzothiazol-2-amine] | ≤ 100 nM
28 | Cn1cc2cc(-c3ccc4nc(C5=CCCNCC5)sc4c3)ccc2n1 [Compound 56, 6-(2-methyl-2H-indazol-5-yl)-2-(2,3,6,7-tetrahydro-1H-azepin-4-yl)-1,3-benzothiazole] | 500 to 1000 nM
29 | CN(c1nc2ccc(-c3cc(F)c4nn(C)cc4c3)cc2s1)C1CC(C)(C)NC(C)(C)C1 [Compound 57, 6-(7-fluoro-2-methyl-2H-indazol-5-yl)-N-methyl-N-(2,2,6,6-tetramethylpiperidin-4-yl)-1,3-benzothiazol-2-amine] | ≤ 100 nM
30 | CC1CC(c2nc3ccc(-c4ccc5nn(C)cc5c4)cc3s2)CCN1 (stereo not drawn) [Compound 58, 6-(2-methyl-2H-indazol-5-yl)-2-(2-methylpiperidin-4-yl)-1,3-benzothiazole] | 500 to 1000 nM
31 | Cc1cc(-c2cc3sc(C4CCNCC4)nc3cn2)cc2cn(C)nc12 [Compound 59, 6-(2,7-dimethyl-2H-indazol-5-yl)-2-(piperidin-4-yl)[1,3]thiazolo[4,5-c]pyridine] | 100 to 500 nM
32 | Cn1cc2cc(-c3cc4sc(C5CCNCC5)nc4cn3)cc(C(F)(F)F)c2n1 [Compound 60, 6-[2-methyl-7-(trifluoromethyl)-2H-indazol-5-yl]-2-(piperidin-4-yl)[1,3]thiazolo[4,5-c]pyridine] | 100 to 500 nM
33 | Cc1cn2nc(-c3cnc4nc(C5CCNCC5)sc4c3)cc(C)c2n1 [Compound 61, 6-(2,8-dimethylimidazo[1,2-b]pyridazin-6-yl)-2-(piperidin-4-yl)[1,3]thiazolo[4,5-b]pyridine] | ≤ 100 nM
